How the values were obtained:
Details in all cases: 72 h
HepG2 [1] = assay: cell viability relative to DMSO; higher = less toxic
Vero E6 [2] = assay: as above
Calu-3 [3] = assay: as above
Caco-2 [4] = assay: as above
U2OS [5] = assay: as above
HepG2 [6] = assay: relative viability EC50 (midpoint between 100% and the lowest measured viability); higher = less toxic
Vero E6 [7] = assay: as above
Calu-3 [8] = assay: as above
Caco-2 [9] = assay: as above
U2OS [10] = assay: as above
HepG2 [11] = assay: drug sensitivity score (DSS) for viability; higher = more toxic; extreme values may be limits of the assay
Vero E6 [12] = assay: as above
Calu-3 [13] = assay: as above
Caco-2 [14] = assay: as above
U2OS [15] = assay: as above

| SMILES | cell viability (HepG2 [1]; 1 nM) [%] | cell viability (HepG2 [1]; 10 nM) [%] | cell viability (HepG2 [1]; 100 nM) [%] | cell viability (HepG2 [1]; 1000 nM) [%] | cell viability (HepG2 [1]; 10000 nM) [%] | cell viability (Vero E6 [2]; 1 nM) [%] | cell viability (Vero E6 [2]; 10 nM) [%] | cell viability (Vero E6 [2]; 100 nM) [%] | cell viability (Vero E6 [2]; 1000 nM) [%] | cell viability (Vero E6 [2]; 10000 nM) [%] | cell viability (Calu-3 [3]; 1 nM) [%] | cell viability (Calu-3 [3]; 10 nM) [%] | cell viability (Calu-3 [3]; 100 nM) [%] | cell viability (Calu-3 [3]; 1000 nM) [%] | cell viability (Calu-3 [3]; 10000 nM) [%] | cell viability (Caco-2 [4]; 1 nM) [%] | cell viability (Caco-2 [4]; 10 nM) [%] | cell viability (Caco-2 [4]; 100 nM) [%] | cell viability (Caco-2 [4]; 1000 nM) [%] | cell viability (Caco-2 [4]; 10000 nM) [%] | cell viability (U2OS [5]; 1 nM) [%] | cell viability (U2OS [5]; 10 nM) [%] | cell viability (U2OS [5]; 100 nM) [%] | cell viability (U2OS [5]; 1000 nM) [%] | cell viability (U2OS [5]; 10000 nM) [%] | relative viability EC50 (HepG2 [6]) [µM] | relative viability EC50 (Vero E6 [7]) [µM] | relative viability EC50 (Calu-3 [8]) [µM] | relative viability EC50 (Caco-2 [9]) [µM] | relative viability EC50 (U2OS [10]) [µM] | drug sensitivity score (HepG2 [11]) | drug sensitivity score (Vero E6 [12]) | drug sensitivity score (Calu-3 [13]) | drug sensitivity score (Caco-2 [14]) | drug sensitivity score (U2OS [15]) |
| --- | --- | --- | --- | --- | --- | --- | --- | --- | --- | --- | --- | --- | --- | --- | --- | --- | --- | --- | --- | --- | --- | --- | --- | --- | --- | --- | --- | --- | --- | --- | --- | --- | --- | --- | --- |
| O=[N+]([O-])c1cn2c(n1)OC[C@@H](OCc1ccc(-c3ccc(OC(F)(F)F)cc3)nc1)C2 [TBA-354] | 92.9 | 108 | 89.4 | 110 | 105 | 96.7 | 101 | 93.6 | 99 | 104 | 101 | 103 | 106 | 96.1 | 98.5 | 99.5 | 95.4 | 103 | 92.1 | 92.9 | 98.3 | 98.8 | 102 | 100 | 98.8 | > 10 | > 10 | > 10 | > 10 | > 10 | 0 | 0 | 0 | 0 | 0 |
| O=C(O)CCc1cc(C(=O)c2ccc(OC3CCCC3)cc2O)ccc1OCc1ccc2c(O)noc2c1 [T-5224] | 97.9 | 93 | 105 | 102 | 96.4 | 93.9 | 101 | 97.2 | 102 | 94.9 | 97.3 | 106 | 92.3 | 93.9 | 100 | 106 | 99.2 | 101 | 93.6 | 94 | 97.6 | 99.2 | 95.9 | 99.9 | 96.4 | > 10 | > 10 | > 10 | > 10 | > 10 | 0 | 0 | 0 | 0 | 0 |
| COc1cc(C(=S)N2CCOCC2)cc(OC)c1OC [sulmetozine] | 95 | 102 | 98.6 | 111 | 108 | 103 | 94.7 | 105 | 97.7 | 113 | 96.5 | 99.4 | 102 | 99.9 | 105 | 90.8 | 98 | 90.6 | 91.6 | 103 | 97.2 | 103 | 94.6 | 96.3 | 102 | > 10 | > 10 | > 10 | > 10 | > 10 | 0 | 0 | 0 | 0 | 0 |
| CCCc1c(OCCCCc2nnn[nH]2)ccc(C(C)=O)c1O [tomelukast] | 95.6 | 90.3 | 94.5 | 82.9 | 84.8 | 94.5 | 98.5 | 107 | 96.6 | 106 | 87.4 | 105 | 107 | 102 | 104 | 88.9 | 93.9 | 97.8 | 105 | 97.6 | 94.9 | 103 | 98.1 | 99.7 | 99.6 | > 10 | > 10 | > 10 | > 10 | > 10 | 1.5 | 0 | 0 | 0 | 0 |
| NCC(O)c1ccc(O)cc1 (stereo not given) [octopamine] | 91.7 | 103 | 95.9 | 97.5 | 117 | 106 | 96.6 | 101 | 85.1 | 100 | 108 | 105 | 93 | 108 | 95.6 | 87.1 | 96.9 | 94 | 100 | 86.1 | 95.1 | 97.3 | 101 | 96.5 | 95.6 | > 10 | > 10 | > 10 | > 10 | > 10 | 0 | 0 | 0 | 0.1 | 0 |
| CCOc1nc2cccc(C(=O)O)c2n1Cc1ccc(-c2ccccc2-c2noc(=O)[nH]2)cc1 [azilsartan] | 93.5 | 103 | 102 | 108 | 102 | 99 | 102 | 98.1 | 103 | 94.3 | 94.2 | 98.2 | 96 | 93 | 91.5 | 103 | 91.4 | 91.9 | 103 | 95.7 | 102 | 93.6 | 99.5 | 93.3 | 97.5 | > 10 | > 10 | > 10 | > 10 | > 10 | 0 | 0 | 0 | 0 | 0 |
| NC(=O)C[C@H](N)C(=O)O [L-asparagine] | 92.7 | 116 | 92.3 | 105 | 93.7 | 102 | 112 | 99.2 | 101 | 86.8 | 95.2 | 95.6 | 93.1 | 96.1 | 98 | 103 | 104 | 92.1 | 106 | 105 | 96.5 | 95.4 | 98.6 | 98.7 | 102 | > 10 | > 10 | > 10 | > 10 | > 10 | 0 | 0.1 | 0 | 0 | 0 |
| CC[C@H](C)[C@@H]1NC(=O)[C@H](Cc2ccc(O)cc2)NC(=O)[C@@H](N)CSSC[C@@H](C(=O)N2CCC[C@H]2C(=O)N[C@@H](CC(C)C)C(=O)NCC(N)=O)NC(=O)[C@H](CC(N)=O)NC(=O)[C@H](CCC(N)=O)NC1=O [oxytocin] | 114 | 96.1 | 105 | 87.7 | 99.2 | 106 | 112 | 98.7 | 105 | 99.2 | 92 | 93.8 | 98.9 | 103 | 97 | 95.5 | 122 | 82.2 | 100 | 100 | 98.2 | 99 | 98.3 | 98.5 | 95.7 | > 10 | > 10 | > 10 | > 10 | > 10 | 0 | 0 | 0 | 0 | 0 |
| CC[C@H](CC[C@@H](C)[C@H]1CC[C@H]2[C@@H]3CC=C4C[C@@H](O[C@@H]5O[C@H](CO)[C@@H](O)[C@H](O)[C@H]5O)CC[C@]4(C)[C@H]3CC[C@]12C)C(C)C [daucosterol] | 92.5 | 96.2 | 102 | 101 | 106 | 95.9 | 100 | 94.5 | 90.5 | 102 | 98.4 | 106 | 99.3 | 108 | 110 | 88.7 | 99.4 | 107 | 102 | 100 | 97.2 | 98.1 | 101 | 100 | 103 | > 10 | > 10 | > 10 | > 10 | > 10 | 0 | 0 | 0 | 0 | 0 |
| CC(C)[C@@H](C)/C=C/[C@@H](C)[C@H]1CC[C@H]2/C(=C/C=C3\C[C@@H](O)CC[C@@H]3C)CCC[C@]12C [dihydrotachysterol] | 92.8 | 94.3 | 95.8 | 93.2 | 106 | 101 | 100 | 98.1 | 102 | 110 | 97.4 | 99.7 | 97.7 | 99.6 | 97.7 | 108 | 96 | 100 | 104 | 103 | 104 | 93.1 | 101 | 99.3 | 100 | > 10 | > 10 | > 10 | > 10 | > 10 | 0 | 0 | 0 | 0 | 0 |
| NC(=O)c1cn([C@@H]2O[C@H](CO)[C@@H](O)[C@H]2O)c2ncnc(N)c2c1=O [API-1] | 106 | 97.9 | 84.9 | 39 | 4.5 | 97 | 89.7 | 94.8 | 93 | 47.3 | 97 | 107 | 87.5 | 52.7 | 20.7 | 92.3 | 92.9 | 85 | 80.1 | 36.4 | 95.7 | 98.8 | 91.1 | 97.5 | 0.9 | 0.544 | 2.1 | 0.639 | 1.53 | 2.98 | 13.6 | 4 | 10.6 | 5.6 | 5.9 |
| Cc1ncc(-c2ccnc(Nc3ccc(S(C)(=O)=O)cc3)n2)n1C(C)C [AZD5438] | 100 | 95 | 106 | 77.3 | 6.7 | 97.6 | 102 | 96.4 | 91.6 | 12.6 | 98.9 | 97.1 | 104 | 106 | 38.1 | 97.1 | 97.8 | 104 | 96.8 | 27.7 | 104 | 105 | 108 | 102 | 10.1 | 1.58 | 2.36 | 3.65 | 2.84 | 3.29 | 8.7 | 6.2 | 2.9 | 4.4 | 4.8 |
| Cn1cc(C2=C(c3cn(CCCSC(=N)N)c4ccccc34)C(=O)NC2=O)c2ccccc21 [bisindolylmaleimide-IX] | 98.6 | 104 | 105 | 96.8 | 5.1 | 91.7 | 101 | 89.3 | 92.6 | 15 | 112 | 96.4 | 100 | 91.2 | 18.1 | 100 | 97.7 | 101 | 94.9 | 25.3 | 105 | 100 | 106 | 103 | 5.7 | 2.92 | 2.45 | 2.28 | 2.61 | 3.32 | 5.7 | 5.9 | 6 | 4.9 | 5 |

From the supplement of paper PMC13380429
